Where two headings read alike, the source gives them in different places.
Experiments:
Assay type in all cases: cell-based
[1] = tested on: HIV-1 recombinant strain encoding reverse transcriptase mutation K103N; test: Resistance profile against HIV-1 RT mutants in MT-2 cells, K103N; conditions: ratio of mean EC50 mutant/WT virus
Procedure: (§1) Compounds were tested for antiviral activity against a panel of NNRTI resistant viruses. A panel of 8 clonal site-directed mutant viruses representing the major resistance development pathways against rilpivirine (“RPV”), efavirenz (“EFV”), and nevirapine (“NVP”), containing both single and double mutations within HIV-1 reverse transcriptase was employed. Further details and background can be found in Janssen et al. J. Med. Chem, 2005, 48, 1901-1909; Das et al., Proc. Nat. Acad. Sci., 2008, vol., 105, no. 5, 1466-1471; and Kuroda et al., Nature Chemistry, 2013, DOI: 10.1038/NCHEM. 1559. […] HIV-1 recombinant strains encoding reverse transcriptase mutations K103N, Y181C, Y188L, G190A, K103N/Y181C, L1001/Y181C, E138K or E138KIM 184V were constructed by site-directed mutagenesis. Wild-type and mutant viruses were prepared by transfecting infectious proviral HXB2-based cDNA clones into MT-2 cells and harvesting the cell supernatants. MT-2 cells were infected with wild-type and mutant HIV-1 strains at a multiplicity of infection (MOI) of 0.005 by gentle mixing for 3 hours at 37° C. and then added at a density of 16,667 cells per well in 50 μL complete RPMI cell culture media (containing 10% fetal bovine serum (FBS) and 10% penicillin-streptomycin) to 96-well plates containing 50 μL of a 3-fold serial dilution of test compounds in RPMI medium. After 5 days of incubation at 37° C. in a humidified incubator in the presence of 5% CO2. 100 μL of Cell Titer-Glo™ Reagent (Promega Biosciences, Inc., Madison, Wis.) was added to each well and the relative light units (RLU) measured on an Envision plate reader. […] The EC50 value was defined as the compound concentration inducing a 50% decrease in virus replication. Data analysis for the antiviral activity observed in MT-2 cells was performed using XL-Fit™ software (IDBS, Guildford, Surrey, UK) to calculate EC50 from an 8-point dose-response curve using the following equation:
(§2) [formula] where y=virus inhibition, x=drug concentration, M=maximum inhibition, H=minimum inhibition and n=Hill coefficient, EC50 values (mean±standard deviation) were calculated from at least three independent experiments performed in triplicate. The level of resistance was calculated as a ratio of the mean EC50 for each mutant/WT virus. Results are disclosed in FIG. 1 and in Tables 3 and 4 below.

[2] = tested on: HIV-1 recombinant strain encoding reverse transcriptase mutation L100I/Y181C; test: Resistance profile against HIV-1 RT mutants in MT-2 cells, L100I/Y181C; conditions: ratio of mean EC50 mutant/WT virus
Procedure: as §1, §2

HIV-1 HBX2 (wild type) = test: High throughput cytopathic effect assay in MT-4 cells, wild type HIV-1
Excerpt: (§3) Compounds were screened in a miniaturized, high throughput cytopathic effect assay for activity against HIV-1 HBX2 (wild type) and HIV-1 reverse transcriptase mutants K103N and Y181C. In Tables 1 and 2 below. “w.t.” refers to results of the tested compounds run with the wildtype 1 and “w.t, assay 2” refers results of the tested compounds run with the wildtype on the same day as the testing of the compounds with the mutants. Thus, “w.t, assay 2” was run under the same conditions as the testing of the compounds with the mutants and provides a direct comparison with the results from the testing with the mutants.
(§4) Ten-point serial dilutions of compounds with half-log step size were generated in DMSO. AZT ([…]) was used as the positive control and DMSO as the negative control. The Echo acoustic dispenser was used to deliver 200 nL of serially diluted compound into sterile 384 well tissue culture assay plates. Two million MT-4 cells were incubated with each of the 3 viruses at MOI of 0.0005 in separate 1 mL infection tubes for 1 hour at 37° C. The cells were diluted in cell culture medium (RPMI+10% FBS) to 50.000 cells/mL. The infected cells were added to 384 well assay plates containing serially dilute compounds. Assay plates were incubated for 5 days in a humidified incubator set at 37° C. and 5% CO2. To measure the cytopathic effect of HIV, 40 μL Cell TiterGlo was added to each well and the resulting luminescence signal is read with the Envision plate reader (Perkin Elmer). Data were normalized to positive and negative controls in each plate and expressed as % CPE Protection. EC50 values were defined as the compound concentration that caused a 50% decrease in luminescence signal, and were calculated by non-linear regression using Pipeline Pilot software by applying a four parameter fit equation (Accelrys, San Diego, Calif.).

[3] = tested on: HIV-1 reverse transcriptase mutant K103N; test: High throughput cytopathic effect assay in MT-4 cells, K103N mutant; conditions: for EC50: Human immunodeficiency virus 1, MT4, 120 h, read-out: MT4 EC50 (nM) against K103N; for FC against mutant K103N: fold change of MT4 EC50 versus w.t. assay 2
Excerpt: as §3, §4

[4] = tested on: HIV-1 recombinant strain encoding reverse transcriptase mutation Y188L; test: Resistance profile against HIV-1 RT mutants in MT-2 cells, Y188L; conditions: ratio of mean EC50 mutant/WT virus
Procedure: as §1, §2

[5] = tested on: HIV-1 recombinant strain encoding reverse transcriptase mutation K103N/Y181C; test: Resistance profile against HIV-1 RT mutants in MT-2 cells, K103N/Y181C; conditions: ratio of mean EC50 mutant/WT virus
Procedure: as §1, §2

[6] = tested on: HIV-1 recombinant strain encoding reverse transcriptase mutation Y181C; test: Resistance profile against HIV-1 RT mutants in MT-2 cells, Y181C; conditions: ratio of mean EC50 mutant/WT virus
Procedure: as §1, §2

[7] = tested on: HIV-1 reverse transcriptase mutant Y181C; test: High throughput cytopathic effect assay in MT-4 cells, Y181C mutant; conditions: for EC50: Human immunodeficiency virus 1, MT4, 120 h, read-out: MT4 EC50 (nM) against Y181C; for FC against mutant Y181C: fold change of MT4 EC50 versus w.t. assay 2
Excerpt: as §3, §4

[8] = Human immunodeficiency virus 1, MT4, read-out: MT4 EC50 (nM) against w.t. assay 2
[9] = Human immunodeficiency virus 1, MT4, 120 h, MT-4 cells, 5 days, cytopathic effect, Cell TiterGlo, read-out: MT4 EC50 (nM) against w.t.

| Structure (SMILES) | Biology resistance panel-low throughput fold change (FC) K103N [1] | Biology resistance panel-low throughput fold change (FC) L100I/Y181C [2] | EC50 (HIV-1 HBX2 (wild type); [8]) | EC50 [3] | FC against mutant K103N [3] | Biology resistance panel-low throughput fold change (FC) Y188L [4] | Biology resistance panel-low throughput fold change (FC) K103N/Y181C [5] | Biology resistance panel-low throughput fold change (FC) Y181C [6] | EC50 [7] | FC against mutant Y181C [7] | EC50 (HIV-1 HBX2 (wild type); [9]) |
| --- | --- | --- | --- | --- | --- | --- | --- | --- | --- | --- | --- |
| COc1cc(Nc2nc(N)c3cccc(-c4c(C)cc(/C=C/C#N)cc4C)c3n2)ccc1C#N [Compound 3, (E)-4-((4-Amino-8-(4-(2-cyanovinyl)-2,6-dimethylphenyl)quinazolin-2-yl)amino)-2-methoxybenzonitrile] | 1.0 | 1.0 | 12.9 nM | 12 nM | 0.9 | 13.7 | 3.4 | 3.4 | 50.2 nM | 3.9 | – |
| Cc1cc(/C=C/C#N)cc(C)c1-c1cc(F)cc2cnc(Nc3ccc(C#N)cc3)nc12 [Compound 4, (E)-4-((8-(4-(2-Cyanovinyl)-2,6-dimethylphenyl)-6-fluoroquinazolin-2-yl)amino)benzonitrile] | 1.4 | 5.4 | 9.8 nM | 19.1 nM | 2.0 | 16.9 | 12.8 | 4.9 | 47 nM | 4.8 | 9.2 nM |
| N#C/C=C/c1cc(F)c(-c2cccc3cnc(Nc4ccc(C#N)cc4)nc23)c(F)c1 [Compound 5, (E)-4-((8-(4-(2-Cyanovinyl)-2,6-difluorophenyl)quinazolin-2-yl)amino)benzonitrile] | 1.6 | 18.9 | 1.5 nM | 2.5 nM | 1.7 | 174.0 | 208.0 | 15.4 | 12 nM | 8.2 | 1.3 nM |
| CNc1nc(Nc2ccc(C#N)cc2)nc2c(-c3c(C)cc(/C=C/C#N)cc3C)cccc12 [Compound 30, (E)-4-((8-(4-(2-Cyanovinyl)-2,6-dimethylphenyl)-4-(methylamino)quinazolin-2-yl)amino)benzonitrile] | – | – | 13 nM | 17 nM | 1.3 | – | – | – | 55.6 nM | 4.3 | 15.9 nM |
| CNc1nc(Nc2ccc(C#N)cn2)nc2c(-c3c(C)cc(/C=C/C#N)cc3C)cccc12 [Compound 31, (E)-6-((8-(4-(2-Cyanovinyl)-2,6-dimethylphenyl)-4-(methylamino)quinazolin-2-yl)amino)nicotinonitrile] | – | – | 8.6 nM | 17.6 nM | 2.1 | – | – | – | 432 nM | 50.5 | 10.5 nM |
| COc1cc(/C=C/C#N)cc(OC)c1-c1cccc2c(N)nc(Nc3ccc(C#N)cc3)nc12 [Compound 32, (E)-4-((4-Amino-8-(4-(2-cyanovinyl)-2,6-dimethoxyphenyl)quinazolin-2-yl)amino)benzonitrile] | – | – | 1.3 nM | 11.5 nM | 1.2 | – | – | – | 10.5 nM | 8.3 | 1.9 nM |
| COc1cc(/C=C/C#N)cc(OC)c1-c1cccc2cnc(Nc3ccc(C#N)cc3)nc12 [Compound 33, (E)-44-((8-(4-(2-Cyanovinyl)-2,6-dimethoxyphenyl)quinazolin-2-yl)amino)benzonitrile] | – | – | 1.5 nM | 3.2 nM | 2.1 | – | – | – | 12.3 nM | 7.9 | 2.1 nM |
| CCc1cc(/C=C/C#N)cc(CC)c1-c1cccc2c(N)nc(Nc3ccc(C#N)cc3)nc12 [Compound 35, (E)-4-((4-Amino-8-(4-(2-cyanovinyl)-2,6-diethylphenyl)quinazolin-2-yl)amino)benzonitrile] | – | – | 16.8 nM | 16.9 nM | 1.0 | – | – | – | 38.6 nM | 2.3 | 12.8 nM |
| CCc1cc(/C=C/C#N)cc(CC)c1-c1cccc2c(N)nc(Nc3ccc(C#N)cn3)nc12 [Compound 36, (E)-6-((4-Amino-8-(4-(2-cyanovinyl)-2,6-diethylphenyl)quinazolin-2-yl)amino)nicotinonitrile] | – | – | 10.5 nM | 10.1 nM | 1.0 | – | – | – | 87.3 nM | 8.3 | 7.7 nM |
| Cc1cc(/C=C/C#N)cc(C)c1-c1cccc2c(NC(N)=O)nc(Nc3ccc(C#N)cc3)nc12 [Compound 37, (E)-1-(2-((4-Cyanophenyl)amino)-8-(4-(2-cyanovinyl)-2,6-dimethylphenyl)quinazolin-4-yl)urea] | – | – | 6.8 nM | 7.8 nM | 1.2 | – | – | – | 22.1 nM | 3.3 | 4.7 nM |
| C/C(=C\C#N)c1cc(C)c(-c2cccc3c(N)nc(Nc4ccc(C#N)cc4)nc23)c(C)c1 [Compound 38, (E)-4-((4-Amino-8-(4-(1-cyanoprop-1-en-2-yl)-2,6-dimethylphenyl)quinazolin-2-yl)amino)benzonitrile] | – | – | 7.9 nM | 7 nM | 0.9 | – | – | – | 18.6 nM | 2.4 | 6 nM |
| C/C(=C/C#N)c1cc(C)c(-c2cccc3c(N)nc(Nc4ccc(C#N)cc4)nc23)c(C)c1 [Compound 39, (Z)-4-((4-Amino-8-(4-(1-cyanoprop-1-en-2-yl)-2,6-dimethylphenyl)quinazolin-2-yl)amino)benzonitrile] | – | – | 8.9 nM | 12.1 nM | 1.4 | – | – | – | 27.2 nM | 3.0 | 5.9 nM |
| Cc1cc(/C=C/C#N)cc(C)c1-c1cccc2c(=O)[nH]c(Nc3ccc(C#N)cc3)nc12 [Compound 41, (E)-4-((8-(4-(2-Cyanovinyl)-2,6-dimethylphenyl)-4-oxo-3,4-dihydroquinazolin-2-yl)amino)benzonitrile] | – | – | 9.5 nM | 15.7 nM | 1.6 | – | – | – | 32.8 nM | 3.4 | 6.3 nM |

— patent US10548898B2, “Quinazoline compounds” (Gilead Sciences, Inc., priority 2014, dated 2020)
